Measured values taken from paper PMC8515607 (ACS Omega, 2021).
Read-outs that look alike come from different tables or passages of the source.

How the values were obtained:
[1] = tested on: BALB/3T3; assay: In vitro antiproliferative activity, SRB assay, normal fibroblasts BALB/3T3; format: cell-based; settings: Mus musculus, BALB/3T3, normal murine embryonic fibroblasts, 72 h, mean ± SD
Text: (§1) The A549 and MCF7 cell lines were purchased from the European Collection of Authenticated Cell Cultures (ECACC, Salisbury, U.K., 86012804 and 86012803). The LoVo cell line was purchased from the American Type Culture Collection (CCL-229, ATCC, Manassas, VA), and LoVo/DX by courtesy of Prof. E. Borowski (Technical University of Gdańsk, Gdańsk, Poland). The BALB/3T3 cell line was purchased from the American Type Culture Collection (CCL-163, ATCC, Manassas, VA). All of the cell lines are maintained in the Institute of Immunology and Experimental Therapy (IIET), Wroclaw, Poland.
(§2) A549 cells were cultured in a mixture of OptiMEM and Roswell Park Memorial Institute (RPMI) 1640 (1:1) medium (IIET, Wroclaw, Poland), supplemented with 10% fetal bovine serum HyClone (GE Healthcare) and 2 mM L-glutamine (Sigma-Aldrich, Germany). MCF7 cells were cultured in a mixture of Eagle’s medium (IIET, Wroclaw, Poland), supplemented with 10% fetal bovine serum, 2 mM L-glutamine, and insulin (Sigma-Aldrich, Germany). LoVo and LoVo/DX cells were cultured in F12K medium (Corning), supplemented with 10% fetal bovine serum HyClone (GE Healthcare) and 0.1 μg/mL doxorubicin (Accord) for LoVo/DX. BALB/3T3 fibroblasts were cultured in Dulbecco’s medium (Gibco), supplemented with 10% fetal bovine serum (GE Healthcare) and 2 mM L-glutamine (Sigma-Aldrich, Germany). All culture media contained antibiotics: 100 U/mL penicillin (Polfa-Tarchomin, Poland) and 0.1 mg/mL streptomycin (Sigma-Aldrich, Germany). All cell lines were cultured during entire experiment in humid atmosphere at 37 °C and 5% CO2.
(§3) All cell lines were exposed to each tested agent at different concentrations in the range 100–0.00001 μg/mL for 72 h. The cells were also exposed to the reference drug cisplatin (Teva Pharmaceuticals, Poland) and doxorubicin (Accord Healthcare Limited, U.K.). Additionally, all cell lines were exposed to dimethyl sulfoxide (DMSO) (solvent used for tested compounds) (POCh, Poland) at concentrations corresponding to those present in tested agents dilutions. After 72 h, sulforhodamine B (SRB) assay was performed.[57]
(§4) After 72 h of incubation with the tested compounds, the cells were fixed in situ by gently adding cold 50% trichloroacetic acid (TCA) (POCh, Poland) and were incubated at room temperature for 1 h. Then, the wells were washed four times with water and air-dried. Next, 0.1% solution of sulforhodamine B (Sigma-Aldrich, Germany) in 1% acetic acid (POCh, Poland) was added to each well and the plates were incubated at room temperature for 0.5 h. After incubation time, unbound dye was removed by washing plates four times with 1% acetic acid, whereas stain bound to cells was solubilized with 10 mM Tris base (Sigma-Aldrich, Germany). Absorbance of each solution was read at Synergy H4 Hybrid Multi-Mode Microplate Reader (BioTek Instruments) at the 540 nm wavelength.
(§5) IC50 values were calculated in Excel sheet using formulas adapted by Mateusz Psurski fromCheburator 0.4, Dmitry Nevozhay software (version 1.2.0 software by Dmitry Nevozhay, 2004–2014, http://www.cheburator.nevozhay.com, freely available) for each experiment.[58] Compounds at each concentration were tested in triplicate in a single experiment, and each experiment was repeated at least three times independently.

[2] = tested on: A549, MCF-7, and LoVo cells; assay: Antiproliferative activity, values quoted jointly for three tumor lines; format: cell-based, human; settings: summary of Table 1; for IC50: Homo sapiens, read-out: IC50 against A549, MCF-7, and LoVo cells (span over the three lines)
Text: as §1, §2, §3, §4, §5

[3] = tested on: LoVo/DX; assay: cells; format: cell-based, human; settings: for LoVo/DX RI: resistance index = IC50 LoVo/DX / IC50 LoVo; for LoVo/DX SI: selectivity index = IC50 BALB/3T3 / IC50 LoVo/DX
Text: as §1, §2, §3, §4, §5

[4] = tested on: A549; assay: cells; format: cell-based, human; settings: for IC50: Homo sapiens, A549, 72 h, read-out: A549 IC50 (nM), 72 h exposure, SRB, mean ± SD; for A549 SI: selectivity index = IC50 BALB/3T3 / IC50 A549
Text: as §1, §2, §3, §4, §5

[5] = tested on: LoVo; assay: cells; format: cell-based, human; settings: for IC50: Homo sapiens, LoVo, 72 h, read-out: LoVo IC50 (nM); for LoVo SI: selectivity index = IC50 BALB/3T3 / IC50 LoVo
Text: as §1, §2, §3, §4, §5

[6] = tested on: MCF-7; assay: cells; format: cell-based, human; settings: for IC50: Homo sapiens, MCF7, 72 h, read-out: MCF-7 IC50 (nM); for MCF-7 SI: selectivity index = IC50 BALB/3T3 / IC50 MCF-7
Text: as §1, §2, §3, §4, §5

[7] = tested on: human colon adenocarcinoma cell lines; settings: cited from earlier work
[8] = Homo sapiens, LoVo/DX, 72 h, read-out: LoVo/DX IC50 (nM), 72 h exposure, SRB, mean ± SD
[9] = read-out: LoVo/DX IC50, 72 h exposure, SRB, mean ± SD

## CNc1ccc2c(cc1=O)[C@@H](n1cc(CNC(=O)C(Cl)Cl)nn1)CCc1cc(OC)c(OC)c(OC)c1-2 [Compound 31]
[1]
  IC50: 9.9 ± 3 nM
[2]
  IC50: 2.7 to 6.3 nM
[3]; [8]
  IC50: ≤ 1000 nM
[3]; [9]
  IC50: 830 ± 220 nM
[3]
  LoVo/DX RI: 270
  LoVo/DX SI: <0.1
[4]
  IC50: 3.3 ± 1.1 nM
  A549 SI: 3.0
[5]
  IC50: 3.1 ± 1.1 nM
  LoVo SI: 3.2
[6]
  IC50: 3 ± 1.5 nM
  MCF-7 SI: 3.3

## C=CCOC(=O)NCc1cn([C@H]2CCc3cc(OC)c(OC)c(OC)c3-c3ccc(NC)c(=O)cc32)nn1 [Compound 39]
[1]
  IC50: 9.1 ± 2.6 nM
[2]
  SI for A549, MCF-7, and LoVo cells (span): 2.1–3.9
[3]; [8]
  IC50: 440 ± 64 nM
[3]
  LoVo/DX RI: 100
  LoVo/DX SI: <0.1
[4]
  IC50: 3.3 ± 0.5 nM
  A549 SI: 2.8
[5]
  IC50: 4.3 ± 0.6 nM
  LoVo SI: 2.1
[6]
  IC50: 2.6 ± 0.5 nM
  MCF-7 SI: 3.5

## CNc1ccc2c(cc1=O)[C@@H](n1cc(C(=O)OCc3ccc(F)cc3)nn1)CCc1cc(OC)c(OC)c(OC)c1-2 [Compound 21]
[1]
  IC50: 25 ± 5.6 nM
[2]
  IC50: 10 to 25 nM
[3]; [8]
  IC50: 530 ± 110 nM
[3]
  LoVo/DX RI: 25
  LoVo/DX SI: 0.1
[4]
  IC50: 21 ± 7.7 nM
  A549 SI: 1.2
[5]
  IC50: 21 ± 6.4 nM
  LoVo SI: 1.2
[6]
  IC50: 21 ± 8 nM
  MCF-7 SI: 1.2

## CNc1ccc2c(cc1=O)[C@@H](n1cc(CNC(=O)c3ccccc3Cl)nn1)CCc1cc(OC)c(OC)c(OC)c1-2 [Compound 35]
[1]
  IC50: 12 ± 2.9 nM
[2]
  IC50: 2.7 to 6.3 nM
[3]; [8]
  IC50: ≤ 1000 nM
[3]; [9]
  IC50: 1000 ± 97 nM
[3]
  LoVo/DX RI: 160
  LoVo/DX SI: <0.1
[4]
  IC50: 5.7 ± 2 nM
  A549 SI: 2.1
[5]
  IC50: 6.3 ± 3.1 nM
  LoVo SI: 1.9
[6]
  IC50: 3.8 ± 0.4 nM
  MCF-7 SI: 3.2

## CNc1ccc2c(cc1=O)[C@@H](n1ccnn1)CCc1cc(OC)c(OC)c(OC)c1-2 [Compound 5]
[1]
  IC50: 11 ± 2.2 nM
[2]
  IC50: 3.1 to 6.4 nM
[3]; [8]
  IC50: 55 ± 20 nM
[3]
  LoVo/DX RI: 9.8
  LoVo/DX SI: 0.2
[4]
  IC50: 6.1 ± 1.1 nM
  A549 SI: 1.8
[5]
  IC50: 5.6 ± 0.6 nM
  LoVo SI: 2.0
[6]
  IC50: 5.6 ± 1 nM
  MCF-7 SI: 2.0

## CNc1ccc2c(cc1=O)C(NCc1ccccc1Cl)CCc1cc(OC)c(OC)c(OC)c1-2 (stereo not shown) [7-N-(2-chlorobenzyl)-10-methylaminocolchcine]
[7]
  calculated selectivity coefficients: around 90
